The source of these data is paper PMC12557365 (Journal of Medicinal Chemistry, 2025).

Several values for one entry are separate records, joined by “and”; a condition that tells them apart may be missing. Identical values can stand only once. Entries after “also recorded” stand apart in the source; their conditions may differ. Like-named read-outs stand apart in the source and are kept apart here.

The subject of series [1] is SARS-CoV-2. Briefly: microbe, parasite or virus in culture. Format: cell-based. The conditions noted are these: Severe acute respiratory syndrome coronavirus 2, A549.
The test system of series [2] is SARS-CoV-2 Omicron strains. The series can be described thus: microbe, parasite or virus in culture. Format: cell-based. The conditions noted are these: Severe acute respiratory syndrome coronavirus 2, Epithelial cell.
Series [3] relates to HCoV-OC43. The series can be described thus: microbe, parasite or virus in culture. It counts as cell-based. As to conditions: Betacoronavirus 1, OC43, MRC5, read-out: EC50 HCoV-OC43.
Series [4] relates to HCoV-229E. Briefly: microbe, parasite or virus in culture. It counts as cell-based.
Series [5] addresses T1, P-gp (Homo sapiens, UniProt P08183). The conditions noted are these: LLC-PK1.
The nature of series [6]: in vitro. As to conditions: pig, LLC-PK1.
The target of series [7] is T1, P-gp. Briefly: in vitro. As to conditions: LLC-PK1.
Series [8] relates to SARS-CoV-2 Gamma strain (hCoV-19/Japan/TY7-501/2021). The series can be described thus: microbe, parasite or virus in culture. It counts as cell-based.
Series [9] concerns SARS-CoV-2 hCoV-19/Japan/TY/WK-521 strain. As to conditions: read-out: HEK 293T-AT EC50; cited from earlier work.
Series [10] deals with SARS-CoV. The conditions noted are these: cited from earlier work.
Series [11] has as its system MERS-CoV. The conditions noted are these: cited from earlier work.
Series [12] has as its system HCoV-229E. As to conditions: cited from earlier work.
For series [13] the following is noted: human, microsomes, 0.5 h; cited from earlier work.
The conditions of series [14]: rat, microsomes, 0.5 h; cited from earlier work.
For series [15] the following is noted: LLC-PK1; cited from earlier work.
Series [16] deals with T1, P-gp. As to conditions: LLC-PK1; cited from earlier work.
Series [17] has as its system SARS-CoV-2 hCoV-19/Japan/TY/WK-521 strain. The series can be described thus: microbe, parasite or virus in culture. Format: cell-based. As to conditions: Severe acute respiratory syndrome coronavirus 2, HEK-293T, read-out: HEK 293T-AT EC50.
In series [18] the target is Human Caspase 2 (Homo sapiens, UniProt P42575). The series can be described thus: biochemical.
Series [19] relates to Human Chymotrypsin. Format: biochemical.
Series [20] relates to Human Cathepsin B/D/G/L. Format: biochemical.
In series [21] the target is Human Thrombin (Homo sapiens, UniProt P00734). Briefly: biochemical.
Series [22] has as its target HIV-1 Protease (Human immunodeficiency virus type 1 group M subtype B, UniProt P04585). The series can be described thus: biochemical.
The subject of series [23] is SARS-CoV. The series can be described thus: microbe, parasite or virus in culture. It counts as cell-based. The conditions noted are these: Severe acute respiratory syndrome coronavirus, VeroE6/TMPRSS2, read-out: EC50 SARS-CoV.
For series [24], the system named is MERS-CoV. The series can be described thus: microbe, parasite or virus in culture. As to conditions: Middle East respiratory syndrome-related coronavirus, VeroE6/TMPRSS2, read-out: EC50 MERS-CoV. It counts as cell-based.
Series [25] deals with SARS-CoV-2 Gamma strain (hCoV-19/Japan/TY7-501/2021). On the set-up: species or system BALB/cAJcl mice. As to conditions: mouse, in vivo.
The conditions of series [26]: pig.
For series [27] the following is noted: in vivo.
The nature of series [28]: in vivo. As to conditions: male, Sprague-Dawley, rat.
Series [29] can be described thus: in vivo. As to conditions: male, beagle, dog, iv, 0.1 mg/kg.
Series [30] is described as follows: in vivo. As to conditions: female, cynomolgus monkey, iv, 0.1 mg/kg.
Series [31] is described as follows: in vitro. As to conditions: both, human, microsomes.
The nature of series [32]: in vitro. As to conditions: male, rat, microsomes.
Series [33] can be described thus: in vitro. The conditions noted are these: African green monkey.
Setting [34] is: Severe acute respiratory syndrome coronavirus 2, VeroE6/TMPRSS2, read-out: EC90, 0% serum.
Where [35] appears, read: Severe acute respiratory syndrome coronavirus 2, VeroE6/TMPRSS2, read-out: EC90, 12.5% serum.
[36] abbreviates: Severe acute respiratory syndrome coronavirus 2, VeroE6/TMPRSS2, read-out: EC90, 25% serum.

T1 sequence (P08183 whole entry): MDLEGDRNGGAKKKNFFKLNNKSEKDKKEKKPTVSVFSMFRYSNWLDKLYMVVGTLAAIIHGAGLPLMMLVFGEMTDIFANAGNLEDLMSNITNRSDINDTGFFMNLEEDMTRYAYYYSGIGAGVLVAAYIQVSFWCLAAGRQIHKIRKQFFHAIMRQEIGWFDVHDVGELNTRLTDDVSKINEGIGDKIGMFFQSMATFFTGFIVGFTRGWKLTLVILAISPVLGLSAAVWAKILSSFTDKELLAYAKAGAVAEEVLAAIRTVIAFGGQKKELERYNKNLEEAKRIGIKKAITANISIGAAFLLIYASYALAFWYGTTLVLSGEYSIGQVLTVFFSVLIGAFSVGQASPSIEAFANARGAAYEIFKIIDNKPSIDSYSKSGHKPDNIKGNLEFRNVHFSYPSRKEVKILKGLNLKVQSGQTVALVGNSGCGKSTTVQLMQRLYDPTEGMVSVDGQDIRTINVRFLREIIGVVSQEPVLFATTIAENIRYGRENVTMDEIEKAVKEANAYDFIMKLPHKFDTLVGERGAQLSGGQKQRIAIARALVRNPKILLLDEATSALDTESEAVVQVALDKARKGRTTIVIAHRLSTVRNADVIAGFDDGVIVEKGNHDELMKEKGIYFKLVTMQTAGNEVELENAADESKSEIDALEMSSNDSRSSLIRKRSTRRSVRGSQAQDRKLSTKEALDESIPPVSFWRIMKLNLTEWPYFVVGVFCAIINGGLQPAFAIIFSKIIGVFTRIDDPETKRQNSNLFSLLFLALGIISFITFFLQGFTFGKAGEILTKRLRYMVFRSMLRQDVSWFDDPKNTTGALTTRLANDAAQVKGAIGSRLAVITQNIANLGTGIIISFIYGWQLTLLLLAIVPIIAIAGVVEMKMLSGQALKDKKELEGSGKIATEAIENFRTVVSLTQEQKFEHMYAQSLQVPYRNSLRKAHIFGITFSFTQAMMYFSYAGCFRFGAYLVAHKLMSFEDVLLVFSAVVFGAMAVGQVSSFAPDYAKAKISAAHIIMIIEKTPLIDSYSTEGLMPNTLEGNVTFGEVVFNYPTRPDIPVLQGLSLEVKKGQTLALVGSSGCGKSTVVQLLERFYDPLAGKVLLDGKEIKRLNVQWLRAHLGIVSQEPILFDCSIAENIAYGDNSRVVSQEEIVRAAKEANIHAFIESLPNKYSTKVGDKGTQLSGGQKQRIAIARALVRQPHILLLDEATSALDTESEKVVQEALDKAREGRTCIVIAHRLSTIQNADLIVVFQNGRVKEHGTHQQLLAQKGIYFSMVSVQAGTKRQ
Sequence of Human Caspase 2 (P42575 170-333): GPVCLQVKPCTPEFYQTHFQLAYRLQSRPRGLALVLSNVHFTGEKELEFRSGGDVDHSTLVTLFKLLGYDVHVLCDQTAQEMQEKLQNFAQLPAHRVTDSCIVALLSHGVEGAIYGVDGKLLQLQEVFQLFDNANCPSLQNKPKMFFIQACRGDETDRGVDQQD
Sequence of Human Caspase 2 (P42575 348-452): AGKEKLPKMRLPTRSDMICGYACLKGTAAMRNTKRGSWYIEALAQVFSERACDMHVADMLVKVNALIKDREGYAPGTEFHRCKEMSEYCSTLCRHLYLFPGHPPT

For the molecule `CC(C)(C)[C@H](NC(=O)C(F)(F)F)C(=O)N1C[C@H]2[C@@H]([C@H]1C(=O)N[C@H](C#N)C[C@@H]1CCNC1=O)C2(C)C` [nirmatrelvir, reference compound], the EC50 (commonly the concentration giving half of the maximal effect) was found to be 47.5 ± 12.3 nM in series [1]; 58.8 ± 12.2 nM in [3]; 696 ± 210 nM in series [4] (Human coronavirus 229E, MRC5, read-out: EC50 HCoV-229E). Moreover, the EC90 – broadly, the point of the concentration-response curve where the effect stands at 90% – in series [2] worked out at 45.1 ± 21.2 nM. In addition, in series [5], the P-gp substrate assessment entry was “P-gp substrates”. In addition, the Papp A→B (in general, the apparent permeability from the apical to the basolateral side of a cell layer) in series [6] is 0.615 ×10⁻⁶ cm/s; in [7], 0.908 ×10⁻⁶ cm/s. For the same molecule, the Papp B→A – broadly, how fast a substance crosses the layer from the basolateral side – in [6] worked out at 1.42 ×10⁻⁶ cm/s; in series [7], 9.39 ×10⁻⁶ cm/s.

In the case of `Cn1cnc(Cn2c(=O)[nH]/c(=N\c3cc4cn(C)nc4cc3Cl)n(Cc3cc(F)c(F)cc3F)c2=O)n1` [ensitrelvir], the EC50 in series [1] was 73.1 ± 16.4 nM; in series [3] it was 142 ± 9 nM; in series [9] it was 27 nM; in series [10], 210 nM; in [11], 1400 nM; in series [12], 5500 nM. Besides, the EC90 in [2] was 60.1 ± 32.8 nM; in [8] (setting [34]), 118 ± 52 nM; in series [8] (setting [35]), 367 ± 69 nM; in series [8] (setting [36]) it was 608 ± 75 nM; in series [8] (Severe acute respiratory syndrome coronavirus 2, VeroE6/TMPRSS2, read-out: EC90, 50% serum), 838 ± 191 nM; in series [8] (Severe acute respiratory syndrome coronavirus 2, VeroE6/TMPRSS2, read-out: EC90, 100% (Extrapolated)), 1590 ± 330 nM. Besides, the EC90 in [8] (read-out: EC90, 12.5% serum) is 218 ± 60 nM; in series [8] (read-out: EC90, 25% serum), 462 ± 129 nM; in [8] (read-out: EC90, 50% serum) it was 1560 ± 290 nM; in series [8] (read-out: EC90, 100% (Extrapolated)), 2920 ± 550 nM. Besides, the P-gp substrate assessment result in [5] is listed as “P-gp substrates”. In series [13], the HLM % remained is 96/88^25%. In [14], the RLM % remained is 96/88^25%. In addition, the “Papp Apical to Basolateral” value in series [15] is on record as 10.3 ± 0.3 ×10-6 cm/sec; in series [16] it was 2.03 ± 0.07 ×10-6 cm/sec. Further, the “Papp Basolateral to Apical” value in series [15] is 11.6 ± 0.3 ×10-6 cm/sec; in series [16] it was 30.2 ± 1.8 ×10-6 cm/sec.

Turning to `N#CCn1c(N2CC3(C2)CC(F)(F)C3)c(-c2ccc(F)c(Cl)c2)c(=O)n(-c2cncc(Cl)c2)c1=O` [Compound 17, [5-(3-Chloro-4-fluorophenyl)-3-(5-chloropyridin-3-yl)-6-(6,6-difluoro-2-azaspiro[3.3]-heptan-2-yl)-2,4-dioxo-3,4-dihydropyrimidin-1(2H)-yl]-acetonitrile], the EC50 was 2.48 nM in series [17]; 2.21 nM in series [1]; 6.61 nM in series [23]; 57.3 nM in [24]; 92 nM in series [3]; 3570 ± 510 nM in [4] (read-out: EC50 HCoV-229E). In addition, the IC50 in series [18], in series [19], in series [20], in series [21] and in series [22] was more than 10000 nM each time. Besides, the EC90 in series [2] is 2.41 ± 1.61 nM; in series [2] (in Mus musculus, read-out: protein-adjusted EC90 (PA-EC90)) it was 27 nM to 28.1 nM and 0.0141 µg/mL to 0.0147 µg/mL; in series [8] (setting [34]), 1.66 ± 0.14 nM; in series [8] (setting [35]), 1.98 ± 0.08 nM; in series [8] (setting [36]) it was 3.42 ± 0.55 nM; in series [8] (read-out: EC90, 12.5% serum), 2.43 ± 0.32 nM. The EC90 in [8] (read-out: EC90, 25% serum) amounted to 2.76 ± 0.66 nM. Further, in [25], the lung virus titers entry is recorded as “reduced lung virus titers in a dose-dependent manner; also recorded: Virus titer reduction was observed; also recorded: appeared to reach maximum efficacy”. Further, in series [26], the “LLC-PK1 P app” value is 6.17 × 10^–6 cm/s. Moreover, in [5], the P-gp substrate assessment entry is given as “P-gp substrates”. The adverse effects result in [27] was “No adverse effects were observed”. Further, the teratogenicity result in series [27] is “No teratogenicity was observed”. The clearance (usually the rate of elimination divided by the concentration) in series [28] (iv) was 6.79 mL/min/kg; in series [29], 2.52 mL/min/kg; in series [30] it was 11.4 mL/min/kg. In addition, the half-life (usually the time in which the quantity being followed falls by half) in series [28] (iv) was 8.14 h; in [29], 24.9 h; in series [30], 7.02 h. Besides, the bioavailability (as a rule, dose-corrected exposure relative to a reference, in per cent) in [28] (po, 1 umol/kg) worked out at 100%. The share remaining (as a rule, what is left of the initial amount, in per cent) at 0.5 h worked out at 99% in series [31] and 92% in [32]. For the same molecule, the results for the Papp A→B in [6] and in series [7] were 6.17 ×10⁻⁶ cm/s and 2.48 ×10⁻⁶ cm/s, respectively. For the same molecule, the values for the Papp B→A in series [6] and in series [7] were 7.36 ×10⁻⁶ cm/s and 22.4 ×10⁻⁶ cm/s, respectively. This molecule also gave a CC50 in [33] of more than 100000 nM.
